Reference: US20230183309A1 (Dana-Farber Cancer Institute, Inc., priority 2019, published 2023)
“Also recorded” adds a separate entry of the source. Numbered stars: 1 amine (or outer) side, 2 acyl side, 3 side chain; on linkers, the order of the positions; unused ones are H or OH. Bridge positions count the residues as written; N and C are the ends. Square brackets hold non-standard residues; d marks the D form. code # = α,α-bis(4′-pentenyl)glycine, C=CCCCC(CCCC=C)(N[*:1])C(=O)[*:2]; R8 = C=CCCCCCC[C@@](C)(N)C(=O)O; S8 = C=CCCCCCC[C@](C)(N)C(=O)O; Aib = CC(C)(N)C(=O)O

Key:
B6 mice = experiment: Glucose tolerance test in fasted mice; type: in vivo, mouse; conditions: 10 nmol/kg IP, glucose 2 g/kg IP 30 minutes later
Experimental: To evaluate whether the relative proteolytic stability of SAH-GLP-1(16,23,30) translated into a functional benefit in vivo, glucose tolerance tests in mice were performed. Mice (n=8 per arm) were fasted overnight and administered the corresponding panel of peptides at 10 nmol/kg intraperitoneally followed by a glucose bolus (2 g/kg) 30 minutes later, and then serial serum glucose monitoring was performed over time.
In vivo efficacy testing of SAH-GLP-1 peptides. Male B6 and db/db mice (JAX 000697) at 10-12 weeks of age were housed (5 mice/cage) at a constant room temperature of 24° C. on a normal day-light cycle and provided a standard diet ad libitum. After one week of acclimatization, B6 mice (n=8 per treatment arm) were fasted for 16 hours overnight and the following morning baseline blood glucose levels were measured (Onetouch), followed by intraperitoneal (IP) injection of vehicle (saline) or the indicated peptide (10 nmol/kg). Thirty minutes later, the mice were treated with a bolus IP injection of glucose (2 g/kg, 20% aqueous solution), followed by serial blood glucose monitoring at 0, 15, 30, 60, and 120 minutes. To evaluate the comparative anti-hyperglycemic effects of peptides in db/db mice (n=8 per treatment arm), vehicle (saline) or the indicated peptide (10 nmol/kg) was injected IP and blood glucose levels monitored at 0, 15, 30, 60, and 720 minutes.

human GLP-1 receptor = human GLP-1 receptor (Homo sapiens, UniProt P43220); conditions: GFP-GLP-1R U2OS cells; FIG. 6A, 6B (lower dose-range 1 µM, 100 nM, 10 nM)
human GLP-1 receptor, sequence (P43220 24-463): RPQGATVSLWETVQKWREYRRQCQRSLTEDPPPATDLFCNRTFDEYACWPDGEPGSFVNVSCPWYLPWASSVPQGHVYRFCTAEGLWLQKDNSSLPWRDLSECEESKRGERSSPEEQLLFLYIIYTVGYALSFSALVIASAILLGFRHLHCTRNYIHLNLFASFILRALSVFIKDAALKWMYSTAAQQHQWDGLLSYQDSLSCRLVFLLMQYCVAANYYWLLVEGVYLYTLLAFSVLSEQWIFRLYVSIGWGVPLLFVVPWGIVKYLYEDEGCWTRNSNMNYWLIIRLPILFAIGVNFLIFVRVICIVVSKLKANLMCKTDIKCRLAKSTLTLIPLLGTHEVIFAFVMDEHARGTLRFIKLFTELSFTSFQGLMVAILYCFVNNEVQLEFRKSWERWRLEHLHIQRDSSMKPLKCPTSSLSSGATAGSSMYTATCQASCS

proteinase K = molecular target: T1, proteinase K (Parengyodontium album, UniProt P06873); type: in vitro ADME
T1 construct: purchased New England Biolabs
T1 sequence (P06873 106-384): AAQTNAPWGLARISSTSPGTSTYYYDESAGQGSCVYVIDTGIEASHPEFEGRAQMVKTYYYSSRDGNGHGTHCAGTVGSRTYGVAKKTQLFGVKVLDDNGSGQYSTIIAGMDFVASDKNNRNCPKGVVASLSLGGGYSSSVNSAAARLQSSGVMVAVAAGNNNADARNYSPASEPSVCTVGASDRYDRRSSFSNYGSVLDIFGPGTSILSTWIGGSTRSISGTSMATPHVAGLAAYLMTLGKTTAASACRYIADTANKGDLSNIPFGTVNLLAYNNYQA

[1] = mouse
Experimental: Plasma Stability Testing. Peptide stability was tested in freshly drawn mouse plasma collected in lithium heparin tubes. Peptide plasma incubations were set up with 500 µL of plasma spiked with 10 µM of the individual peptides. Samples were gently shaken in an orbital shaker at 37° C., and 20 µL aliquots were removed at 0, 5, 15, 30, 60, 120, and 200 minutes and added to 150 µL of a mixture containing 50% water/50% acetonitrile to stop further degradation of the peptides. The samples were allowed to sit on ice for the duration of the assay and then transferred to a MultiScreen Solvinert 0.45 µm low-binding hydrophilic PTFE plate (Millipore). The filtrate was directly analyzed by LC/MS/MS using a Thermo BetaSil column, 2.1 × 50 mm, 5 µm. […] The percentage of remaining peptide was determined by the decrease in chromatographic peak area and log transformed to calculate the half-life.

[2] = molecular target: GLP-1R expressed on CHO-K1 cells (cAMP Hunter eXpress GLP1R CHO-K1 GPCR Assay, Eurofins, 95-0062E2CP2S) (UniProt P43220 24-463); experiment: cell-based or functional assay

For `CC[C@H](C)[C@H](NC(=O)[C@H](Cc1ccccc1)NC(=O)[C@H](CCC(=O)O)NC(=O)[C@H](CCCCN)NC(=O)[C@H](C)NC(=O)[C@H](C)NC(=O)[C@H](CCC(N)=O)NC(=O)CNC(=O)[C@H](CCC(=O)O)NC(=O)[C@H](CC(C)C)NC(=O)[C@H](Cc1ccc(O)cc1)NC(=O)[C@H](CO)NC(=O)[C@H](CO)NC(=O)[C@@H](NC(=O)[C@H](CC(=O)O)NC(=O)[C@H](CO)NC(=O)[C@@H](NC(=O)[C@H](Cc1ccccc1)NC(=O)[C@@H](NC(=O)CNC(=O)[C@H](CCC(=O)O)NC(=O)[C@H](C)NC(=O)[C@@H](N)Cc1c[nH]cn1)[C@@H](C)O)[C@@H](C)O)C(C)C)C(=O)N[C@@H](C)C(=O)N[C@@H](Cc1c[nH]c2ccccc12)C(=O)N[C@@H](CC(C)C)C(=O)N[C@H](C(=O)N[C@@H](CCCCN)C(=O)NCC(=O)N[C@@H](CCCNC(=N)N)C(N)=O)C(C)C` [GLP-1], the “control of induced hyperglycemia in glucose tolerance test” value (B6 mice) was “least effective”.

In the case of “HGEGTFTSD8SSYLEG#AAKEFIZWLVKGR (H-HGEGTFTSD[R8]SSYLEG[code #]AAKEFI[S8]WLVKGR-NH2; staple 10-17, 17-24) [SAH-GLP-1(A8G)(16,23,30)]”, the “GLP-1R internalization activity compared with the corresponding unstapled / wild-type GLP-1 peptide” value (human GLP-1 receptor) is reported as “more active”.

With `CC[C@H](C)[C@H](NC(=O)[C@H](Cc1ccccc1)NC(=O)[C@H](CCC(=O)O)NC(=O)[C@H](CCCCNC(=O)COCCOCCNC(=O)COCCOCCNC(=O)CC[C@H](NC(=O)CCCCCCCCCCCCCCCCC(=O)O)C(=O)O)NC(=O)[C@H](C)NC(=O)[C@H](C)NC(=O)[C@H](CCC(N)=O)NC(=O)CNC(=O)[C@H](CCC(=O)O)NC(=O)[C@H](CC(C)C)NC(=O)[C@H](Cc1ccc(O)cc1)NC(=O)[C@H](CO)NC(=O)[C@H](CO)NC(=O)[C@@H](NC(=O)[C@H](CC(=O)O)NC(=O)[C@H](CO)NC(=O)[C@@H](NC(=O)[C@H](Cc1ccccc1)NC(=O)[C@@H](NC(=O)CNC(=O)[C@H](CCC(=O)O)NC(=O)C(C)(C)NC(=O)[C@@H](N)Cc1cnc[nH]1)[C@@H](C)O)[C@@H](C)O)C(C)C)C(=O)N[C@@H](C)C(=O)N[C@@H](Cc1c[nH]c2ccccc12)C(=O)N[C@@H](CC(C)C)C(=O)N[C@H](C(=O)N[C@@H](CCCNC(=N)N)C(=O)NCC(=O)N[C@@H](CCCNC(=N)N)C(=O)NCC(=O)O)C(C)C` [semaglutide, reference compound] the “proteolysis by proteinase K (in words)” value (proteinase K; identical conditions as FIG. 7A, FIG. 7B) was “rapidly proteolyzed; also recorded: rapid proteolysis”.

In the case of `CC[C@H](C)[C@@H]1NC(=O)[C@H](Cc2ccccc2)NC(=O)[C@H](CCC(=O)O)NC(=O)[C@H](CCCCN)NC(=O)[C@H](C)NC(=O)[C@H](C)NC(=O)C2(CCCC=CCCCCCC[C@@](C)(NC(=O)[C@H](CC(=O)O)NC(=O)[C@H](CO)NC(=O)[C@@H](NC(=O)[C@H](Cc3ccccc3)NC(=O)[C@@H](NC(=O)CNC(=O)[C@H](CCC(=O)O)NC(=O)C(C)(C)NC(=O)[C@@H](N)Cc3c[nH]cn3)[C@@H](C)O)[C@@H](C)O)C(=O)N[C@@H](CO)C(=O)N[C@@H](CO)C(=O)N[C@@H](Cc3ccc(O)cc3)C(=O)N[C@@H](CC(C)C)C(=O)N[C@@H](CCC(=O)O)C(=O)NCC(=O)N2)CCCC=CCCCCCC[C@@](C)(C(=O)N[C@@H](Cc2c[nH]c3ccccc23)C(=O)N[C@@H](CC(C)C)C(=O)N[C@H](C(=O)N[C@@H](CCCCN)C(=O)NCC(=O)N[C@@H](CCCNC(=N)N)C(N)=O)C(C)C)NC1=O` (stereo partly drawn) [SAH-GLP-1(16,23,30), HJEGTFTSD8SSYLEG#AAKEFIZWLVKGR], the “plasma half-life relative to semaglutide” value [1] is reported as “nearly double”, the half-life ([1]; plasma) is reported as 5.33 h and the “improvement of proteinase K half-life compared to the singly stapled peptides” value (proteinase K) is reported as 2-7 fold. The “improvement of proteinase K half-life compared to wild-type / control peptide” value (proteinase K) was “over 20 fold” and the half-life (proteinase K; proteinase K, 50 mM Tris-HCl, pH 7.4, peptides have the A8Aib substitution, read-out: t½ (half-life), proteinase K digestion, intact peptide by LCMS) was 3.67 h.

For H-H[Aib]EGTFTSD[R8]SSYLEG[code #]AAKEFI[S8]WLVKGR-NH2 (staple 10-17, 17-24) [SAH-GLP-1(16,23,30) A8J], the “cAMP induction (cAMP Hunter eXpress luminescence assay), EC50” value [2] was 0.16 nM.
